Where “and” joins values, the source holds several entries; their conditions need not be identical. Identical values can stand only once. After the bases stand the sugars from the 5' end (letter, count) and the backbone: PS all phosphorothioate, else s phosphorothioate and o phosphodiester by linkage. Methylation of C is not given here. k = constrained ethyl (cEt); d = 2'-deoxy (DNA)

The target of the data set is MALAT1. The settings on record: ASO, A431, 0.005 µM.
As to AGACCAACTAAGCGAA (sugars k3 d10 k3, PS), the target mRNA inhibition was 38%. Consider AGACCCCTGACTTTCT (sugars k3 d10 k3, PS), for which the target mRNA inhibition stood at 22%. For the sequence AGACCTCGACACCATC (sugars k3 d10 k3, PS), the target mRNA inhibition amounted to 46%. Regarding AGACTGTTGCTTGTTT (sugars k3 d10 k3, PS), the target mRNA inhibition was 1%. For AGAGAACCACACACTA (sugars k3 d10 k3, PS) the value was 28%; for AGAGATACCTGTCTGA (sugars k3 d10 k3, PS), 22%.

Turning to AGAGCATTGGAGATCA (sugars k3 d10 k3, PS), the target mRNA inhibition was determined as 20%. Take AGAGGGCCTCTATTGC (sugars k3 d10 k3, PS): the target mRNA inhibition was found to be 33%.

For the sequence AGATTAAAGTGTGATA (sugars k3 d10 k3, PS), the target mRNA inhibition came out at 27%.

As to AGCAGTAACATCTGAT (sugars k3 d10 k3, PS), the target mRNA inhibition was 41%. AGCATTCCTTCGGATG (sugars k3 d10 k3, PS): the target mRNA inhibition is 14%. For AGCATTGGAGATCAGC (sugars k3 d10 k3, PS) the value was 36%. For AGCCCCCCACGGCCCG (sugars k3 d10 k3, PS), the target mRNA inhibition was 27%.

Consider AGCGAATGGCTTTGTC (sugars k3 d10 k3, PS), for which the target mRNA inhibition was determined as 5%. Take AGCTGCAAACTTTAGA (sugars k3 d10 k3, PS): the target mRNA inhibition amounted to 26%.

As to AGCTTATGGAACTTGA (sugars k3 d10 k3, PS), the target mRNA inhibition was 16%. For AGGCAAGTCCTCATTA (sugars k3 d10 k3, PS) the value was 16%; for AGGCGAGCTGAGGCTT (sugars k3 d10 k3, PS), 19%; for AGGCTCGATGGAAAAA (sugars k3 d10 k3, PS), 28%. For AGGCTTTAAATGACGC (sugars k3 d10 k3, PS) the value was -11%. Take AGGGATTTGAACCCCG (sugars k3 d10 k3, PS): the target mRNA inhibition is -3%. Take AGGGTTATGCTTATTC (sugars k3 d10 k3, PS): the target mRNA inhibition is 63% and 60%. To AGGTCATCTATTCACA (sugars k3 d10 k3, PS) belongs 39%; to AGTATCAAATTATGAC (sugars k3 d10 k3, PS), 14%. To AGTCAAGCTCCTGACA (sugars k3 d10 k3, PS) belongs 13%. To AGTCCTGCGACTTGCT (sugars k3 d10 k3, PS) belongs 26%. Consider AGTGTTCCTGCATGTA (sugars k3 d10 k3, PS), for which the target mRNA inhibition amounted to 31%. To AGTTACTCCAGCATAA (sugars k3 d10 k3, PS) belongs 31%; to AGTTTACCACCTTTTG (sugars k3 d10 k3, PS), 23%; to AGTTTTCAGCAGTAGG (sugars k3 d10 k3, PS), -21%. For ATAAGGACAGCTAAGA (sugars k3 d10 k3, PS) the value was 8%; for ATAATCTCCCACCTGT (sugars k3 d10 k3, PS), 17%; for ATACCTTAACATCTTG (sugars k3 d10 k3, PS), 43%. As to ATACTATTGTCCCATA (sugars k3 d10 k3, PS), the target mRNA inhibition was determined as 31%. In the case of ATAGTACTATAGCATC (sugars k3 d10 k3, PS), the target mRNA inhibition is 30%. To ATATTGTGCTGTTACC (sugars k3 d10 k3, PS) belongs -9%. As to ATCAACAAAAGCCCAC (sugars k3 d10 k3, PS), the target mRNA inhibition was -12%. For ATCAAGGATGTATATA (sugars k3 d10 k3, PS) the value was 0%; for ATCAAGGCACTGATCA (sugars k3 d10 k3, PS), 23%; for ATCACTACTCCAAGCA (sugars k3 d10 k3, PS), 20%. For ATCAGAACAGTACTGC (sugars k3 d10 k3, PS) the value was 35%. To ATCAGCTTCCGCTAAG (sugars k3 d10 k3, PS) belongs 4%; to ATCAGTAGTAAGAATC (sugars k3 d10 k3, PS), 23%. Consider ATCATAATCTCCCACC (sugars k3 d10 k3, PS), for which the target mRNA inhibition stood at 20%.

With ATCATATTTTAAACGG (sugars k3 d10 k3, PS), the target mRNA inhibition was 32%.

For the sequence ATCATTAAGCCACTTC (sugars k3 d10 k3, PS), the target mRNA inhibition was 53% and 69%. For ATCCAAGCTACTGGCT (sugars k3 d10 k3, PS) the value was 40%; for ATCCCATCACTGAAGC (sugars k3 d10 k3, PS), 36%; for ATCCCTTCAGGATCAT (sugars k3 d10 k3, PS), 19%. On to ATCTGATTCTAACAGC (sugars k3 d10 k3, PS), for which the target mRNA inhibition worked out at 40%.

Take ATCTTAACTCAAAGTC (sugars k3 d10 k3, PS): the target mRNA inhibition stood at 39%. To ATCTTCACCACGAACT (sugars k3 d10 k3, PS) belongs 22%. As to ATGAAATGCCTCTGCA (sugars k3 d10 k3, PS), the target mRNA inhibition turned out to be 13%.

In the case of ATGACCCTACTGAAGA (sugars k3 d10 k3, PS), the target mRNA inhibition is 15%. As to ATGACGCAATTCTCCC (sugars k3 d10 k3, PS), the target mRNA inhibition worked out at 15%.

For the sequence ATGCCTACCGCACAGC (sugars k3 d10 k3, PS), the target mRNA inhibition is -8%. To ATGGAACTTGAATGCA (sugars k3 d10 k3, PS) belongs 1%; to ATGGACATTGCCTCTT (sugars k3 d10 k3, PS), 37%. For ATGGCGGACTTTCTCC (sugars k3 d10 k3, PS) the value was 29%; for ATGGTAGATTCCGTAA (sugars k3 d10 k3, PS), 14%. On to ATTAAAGTGTGATAGT (sugars k3 d10 k3, PS), for which the target mRNA inhibition amounted to 17%. As to ATTATACATCAAGGAT (sugars k3 d10 k3, PS), the target mRNA inhibition worked out at 17%. As to ATTCAACTGGAAGCTC (sugars k3 d10 k3, PS), the target mRNA inhibition came to 17%.

Take ATTCAATACTATTGTC (sugars k3 d10 k3, PS): the target mRNA inhibition is 24%.

As to ATTCCCACCCAAAAGC (sugars k3 d10 k3, PS), the target mRNA inhibition is 5%. Regarding ATTCCTTATTTAGAGG (sugars k3 d10 k3, PS), the target mRNA inhibition is -11%.

Turning to ATTCTTTTCTTCGCCT (sugars k3 d10 k3, PS), the target mRNA inhibition is 48%. To ATTGGAGATCAGCTTC (sugars k3 d10 k3, PS) belongs 52%. For ATTGTCTCAATTTGGC (sugars k3 d10 k3, PS), the target mRNA inhibition is 63% and 84%.

ATTGTTTCATCCTACC (sugars k3 d10 k3, PS): the target mRNA inhibition was determined as 22%. For the sequence ATTTACTTGCCAACAG (sugars k3 d10 k3, PS), the target mRNA inhibition is 47%. ATTTATAGACGGAGAA (sugars k3 d10 k3, PS): the target mRNA inhibition is 9%. ATTTTAAGGTTGCATC (sugars k3 d10 k3, PS): the target mRNA inhibition stood at 37%.

Turning to CAAACGAAACATTGGC (sugars k3 d10 k3, PS), the target mRNA inhibition was 31%. As to CAAACTACACATGCAG (sugars k3 d10 k3, PS), the target mRNA inhibition came out at 6%.

Regarding CAAACTTGCCATCTAC (sugars k3 d10 k3, PS), the target mRNA inhibition was 11%. To CAAATCCTGATCTGGT (sugars k3 d10 k3, PS) belongs 24% and 21%; to CAACACCCGGAAATCG (sugars k3 d10 k3, PS), 18%. For the sequence CAAGATTCATGAGTAT (sugars k3 d10 k3, PS), the target mRNA inhibition was 34%. For CAAGTTACATGTTCCC (sugars k3 d10 k3, PS), the target mRNA inhibition came out at 42%.

In the case of CAATATCTTAGTAACC (sugars k3 d10 k3, PS), the target mRNA inhibition is 29%. For CAATTAATGCTAGTCC (sugars k3 d10 k3, PS) the value was 28%; for CAATTTAGAGCTTCTC (sugars k3 d10 k3, PS), -12%; for CAATTTATAGACCCCT (sugars k3 d10 k3, PS), -6%.

With CACAACAATTTAGAGC (sugars k3 d10 k3, PS), the target mRNA inhibition was -17%. In the case of CACACCCAGAAGTGTT (sugars k3 d10 k3, PS), the target mRNA inhibition was found to be 13%.

Take CACAGGAACAAGTCCT (sugars k3 d10 k3, PS): the target mRNA inhibition stood at 16%. To CACCACGAACTGCTGC (sugars k3 d10 k3, PS) belongs 19%; to CACCCAGAAGTGTTTA (sugars k3 d10 k3, PS), -4%; to CACCGGAATTCGATCA (sugars k3 d10 k3, PS), 20%.

As to CACCTTCCGCCGCCTC (sugars k3 d10 k3, PS), the target mRNA inhibition was 28%.

Consider CACCTTCCGCCGCCTT (sugars k3 d10 k3, PS), for which the target mRNA inhibition is -25%. Consider CACCTTCGGTTTAATC (sugars k3 d10 k3, PS), for which the target mRNA inhibition was determined as 20%. For CACCTTGAGTCATTTG (sugars k3 d10 k3, PS) the value was 37%; for CACTACCATATCCAAA (sugars k3 d10 k3, PS), 23%. To CACTTATCCCTAACAT (sugars k3 d10 k3, PS) belongs 10%. To CACTTTCCTTGCCCAA (sugars k3 d10 k3, PS) belongs 69% and 61%. For the sequence CAGACCTGAAGTCAAG (sugars k3 d10 k3, PS), the target mRNA inhibition was determined as 14%. For CAGCTTATGGAACTTG (sugars k3 d10 k3, PS) the value was -33%.

The values above are taken from the OligoGym collection.
